From ChEMBL document CHEMBL1909046, “DrugMatrix in vitro pharmacology data” come the findings set out here.

For experiment [1], the target named is T1, Type-2 angiotensin II receptor (Homo sapiens, UniProt P50052). Also: in other assays of this panel Not Active means under 50% inhibition at 10 µM.
T1 sequence (P50052 whole entry): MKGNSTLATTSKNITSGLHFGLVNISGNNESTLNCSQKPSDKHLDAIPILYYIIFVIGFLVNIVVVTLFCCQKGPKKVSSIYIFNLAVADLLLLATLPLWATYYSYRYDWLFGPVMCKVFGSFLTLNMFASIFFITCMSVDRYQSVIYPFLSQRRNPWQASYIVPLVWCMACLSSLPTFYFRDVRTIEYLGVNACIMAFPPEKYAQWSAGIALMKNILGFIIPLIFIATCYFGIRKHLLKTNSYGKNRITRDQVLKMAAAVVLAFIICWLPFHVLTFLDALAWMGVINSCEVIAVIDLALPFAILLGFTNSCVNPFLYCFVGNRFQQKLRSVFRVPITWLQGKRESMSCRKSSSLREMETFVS
The experiment can be described thus: biochemical. The experiment is classed as cell-based, CHO-K1. Conditions: cho-k1.

Experiment [2] addresses T2, Amine oxidase [flavin-containing] A (Homo sapiens, UniProt P21397).
T2 sequence (P21397 whole entry): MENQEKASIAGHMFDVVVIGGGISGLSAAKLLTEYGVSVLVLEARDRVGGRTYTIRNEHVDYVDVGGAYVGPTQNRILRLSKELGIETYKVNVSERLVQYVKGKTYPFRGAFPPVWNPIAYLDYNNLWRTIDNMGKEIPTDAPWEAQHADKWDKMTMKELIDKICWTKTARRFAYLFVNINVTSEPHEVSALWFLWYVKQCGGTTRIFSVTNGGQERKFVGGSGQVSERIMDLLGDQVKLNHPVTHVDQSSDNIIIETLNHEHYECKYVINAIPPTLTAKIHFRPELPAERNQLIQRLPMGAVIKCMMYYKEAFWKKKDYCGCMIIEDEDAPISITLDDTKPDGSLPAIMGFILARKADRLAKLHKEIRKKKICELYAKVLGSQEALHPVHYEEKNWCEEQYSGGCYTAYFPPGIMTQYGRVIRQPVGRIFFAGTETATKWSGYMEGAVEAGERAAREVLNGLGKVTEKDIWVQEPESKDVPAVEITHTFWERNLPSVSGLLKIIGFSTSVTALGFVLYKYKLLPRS
As to the kind of experiment: DRUGMATRIX: Monoamine Oxidase MAO-A enzyme inhibition (substrate: Kynuramine). Conditions: Not Active = under 50% inhibition at 10 µM. Further details: species or system BTI-TN-5B1-4.

Experiment [3] deals with T3, Cysteinyl leukotriene receptor 1 (Homo sapiens, UniProt Q9Y271).
T3 sequence (Q9Y271 whole entry): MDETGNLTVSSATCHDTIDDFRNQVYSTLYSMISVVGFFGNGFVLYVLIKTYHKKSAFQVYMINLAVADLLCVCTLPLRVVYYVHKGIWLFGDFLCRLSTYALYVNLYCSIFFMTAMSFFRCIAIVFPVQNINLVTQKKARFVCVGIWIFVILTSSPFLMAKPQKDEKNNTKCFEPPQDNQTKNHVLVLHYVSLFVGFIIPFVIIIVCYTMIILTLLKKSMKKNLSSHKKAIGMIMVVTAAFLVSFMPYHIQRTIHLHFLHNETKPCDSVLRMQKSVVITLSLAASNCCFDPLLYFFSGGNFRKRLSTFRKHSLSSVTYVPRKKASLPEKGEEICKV
The experiment is classed as cell membranes, Membrane. Particulars: cho-k1.

In another experiment the target is Insulin receptor (Rattus norvegicus, UniProt P15127). The experiment is classed as cell membranes, Wistar, Liver, Membrane. Also: in other assays of this panel Not Active means under 50% inhibition at 10 µM.
The next experiment deals with T4, Glucocorticoid receptor (Homo sapiens, UniProt P04150).
T4 sequence (P04150 whole entry): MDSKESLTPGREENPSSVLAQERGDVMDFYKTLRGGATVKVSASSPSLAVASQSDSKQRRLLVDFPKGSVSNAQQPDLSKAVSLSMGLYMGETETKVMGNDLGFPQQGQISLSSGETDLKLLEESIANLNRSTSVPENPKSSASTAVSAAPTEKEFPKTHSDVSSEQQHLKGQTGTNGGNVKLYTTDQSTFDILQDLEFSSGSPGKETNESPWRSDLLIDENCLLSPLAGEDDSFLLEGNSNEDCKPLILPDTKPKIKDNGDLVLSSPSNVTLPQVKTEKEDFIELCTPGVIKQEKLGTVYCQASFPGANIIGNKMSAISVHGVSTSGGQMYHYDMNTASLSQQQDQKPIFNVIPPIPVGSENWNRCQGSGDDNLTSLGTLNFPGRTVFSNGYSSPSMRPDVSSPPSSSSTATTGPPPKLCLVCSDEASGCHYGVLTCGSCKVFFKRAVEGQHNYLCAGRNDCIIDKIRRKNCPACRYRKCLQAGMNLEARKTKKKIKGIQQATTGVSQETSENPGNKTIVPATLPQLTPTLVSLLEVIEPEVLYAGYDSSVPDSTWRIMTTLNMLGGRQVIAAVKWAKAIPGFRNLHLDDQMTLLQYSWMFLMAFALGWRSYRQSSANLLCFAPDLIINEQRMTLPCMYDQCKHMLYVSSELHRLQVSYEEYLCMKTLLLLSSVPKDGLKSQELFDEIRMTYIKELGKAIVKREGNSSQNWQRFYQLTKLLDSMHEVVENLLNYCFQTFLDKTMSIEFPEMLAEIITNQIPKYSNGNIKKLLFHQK
Conditions: hela s3.

Experiment [4] is described as follows: DRUGMATRIX: Leukotriene, BLT (LTB4) radioligand binding (ligand: [3H]LTB4). Particulars: u-937; Not Active = under 50% inhibition at 10 µM. The experiment is classed as cell membranes, Membrane.
In experiment [5] the target is T5, C-X-C chemokine receptor type 1 (Homo sapiens, UniProt P25024). Also: in other assays of this panel Not Active means under 50% inhibition at 10 µM.
T5 sequence (P25024 whole entry): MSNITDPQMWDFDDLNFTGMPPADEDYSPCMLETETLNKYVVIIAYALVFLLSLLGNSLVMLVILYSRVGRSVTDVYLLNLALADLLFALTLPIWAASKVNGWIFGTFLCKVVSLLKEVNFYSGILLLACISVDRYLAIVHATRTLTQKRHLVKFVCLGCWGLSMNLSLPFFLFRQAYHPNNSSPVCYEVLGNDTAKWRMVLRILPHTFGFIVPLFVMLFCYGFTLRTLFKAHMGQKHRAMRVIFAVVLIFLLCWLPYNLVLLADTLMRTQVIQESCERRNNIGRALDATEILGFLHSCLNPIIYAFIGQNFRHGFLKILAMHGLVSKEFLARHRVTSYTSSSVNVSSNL

In experiment [6] the target is C-C chemokine receptor type 2 (Homo sapiens, UniProt P41597). The experiment is classed as cell membranes, Membrane. Particulars: cho-k1. Also: in other assays of this panel Not Active means under 50% inhibition at 10 µM.
C-C chemokine receptor type 2, sequence (P41597 whole entry): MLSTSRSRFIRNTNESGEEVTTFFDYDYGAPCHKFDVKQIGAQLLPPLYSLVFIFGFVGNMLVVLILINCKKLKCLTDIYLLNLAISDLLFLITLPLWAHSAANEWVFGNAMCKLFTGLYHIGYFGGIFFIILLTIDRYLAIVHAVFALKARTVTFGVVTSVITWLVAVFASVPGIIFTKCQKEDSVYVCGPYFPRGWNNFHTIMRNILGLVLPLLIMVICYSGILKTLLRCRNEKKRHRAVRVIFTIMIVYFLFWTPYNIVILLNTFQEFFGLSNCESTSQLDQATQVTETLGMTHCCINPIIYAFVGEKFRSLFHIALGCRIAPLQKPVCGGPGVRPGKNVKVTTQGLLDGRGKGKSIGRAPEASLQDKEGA

Insulin receptor, sequence (P15127 27-759 limits assumed): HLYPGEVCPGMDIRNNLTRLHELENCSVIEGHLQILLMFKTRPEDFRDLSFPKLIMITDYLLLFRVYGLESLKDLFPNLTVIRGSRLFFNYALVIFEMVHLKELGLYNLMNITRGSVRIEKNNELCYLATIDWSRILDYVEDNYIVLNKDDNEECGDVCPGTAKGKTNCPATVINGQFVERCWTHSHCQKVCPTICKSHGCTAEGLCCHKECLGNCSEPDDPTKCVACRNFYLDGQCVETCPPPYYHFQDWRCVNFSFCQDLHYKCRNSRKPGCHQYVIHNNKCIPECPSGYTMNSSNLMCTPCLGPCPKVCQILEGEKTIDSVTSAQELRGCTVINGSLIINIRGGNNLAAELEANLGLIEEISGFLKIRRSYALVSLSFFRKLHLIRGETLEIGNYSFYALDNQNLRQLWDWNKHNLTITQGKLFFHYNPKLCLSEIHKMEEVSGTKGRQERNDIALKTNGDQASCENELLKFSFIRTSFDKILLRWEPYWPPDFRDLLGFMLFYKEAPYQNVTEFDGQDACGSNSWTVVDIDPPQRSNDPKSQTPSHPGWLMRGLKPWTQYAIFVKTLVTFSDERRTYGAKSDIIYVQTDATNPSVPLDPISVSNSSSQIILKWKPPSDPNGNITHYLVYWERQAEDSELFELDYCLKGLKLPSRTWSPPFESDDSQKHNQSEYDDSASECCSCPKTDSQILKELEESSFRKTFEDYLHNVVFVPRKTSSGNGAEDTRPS
Insulin receptor, sequence (P15127 764-1383 limits assumed): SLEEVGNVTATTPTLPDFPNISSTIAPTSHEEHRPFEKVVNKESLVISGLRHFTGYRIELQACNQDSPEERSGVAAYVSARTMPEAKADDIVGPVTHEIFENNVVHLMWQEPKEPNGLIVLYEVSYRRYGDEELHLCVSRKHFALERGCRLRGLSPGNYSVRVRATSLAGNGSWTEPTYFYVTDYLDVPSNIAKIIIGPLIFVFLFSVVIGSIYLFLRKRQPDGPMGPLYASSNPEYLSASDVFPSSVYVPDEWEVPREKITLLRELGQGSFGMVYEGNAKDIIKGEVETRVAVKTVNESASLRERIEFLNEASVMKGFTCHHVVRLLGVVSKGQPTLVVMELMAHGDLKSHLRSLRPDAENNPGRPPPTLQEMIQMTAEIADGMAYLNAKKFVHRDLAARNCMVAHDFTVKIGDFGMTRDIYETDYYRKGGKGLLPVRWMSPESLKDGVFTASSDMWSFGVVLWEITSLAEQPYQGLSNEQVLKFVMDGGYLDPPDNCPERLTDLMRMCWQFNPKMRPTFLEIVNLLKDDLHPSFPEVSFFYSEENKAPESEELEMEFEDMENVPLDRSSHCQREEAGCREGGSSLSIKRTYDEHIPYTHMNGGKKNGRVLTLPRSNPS

What is called IC50 is the concentration that gives 50% inhibition. Take `Cc1cc(O)cc(C)c1Cl` [CHLOROXYLENOL]: the 50% inhibitory concentration (IC50) result in experiment [1] was “Not Active”; in experiment [2] (read-out: IC50) it was 1830 nM; in experiment [3], “Not Active”; against Insulin receptor, “Not Active”; at Glucocorticoid receptor, “Not Active”; in experiment [4] it was “Not Active”. Further, the IC50 result in experiment [5] and in experiment [6] was “Not Active” throughout. The Ki result in experiment [4] is “Not Active”.
On to `CCCNC(=O)NS(=O)(=O)c1ccc(Cl)cc1` [CHLORPROPAMIDE], for which the IC50 result (in experiment [1]; in experiment [2] (bti-tn-5b1-4); in experiment [3]; against Insulin receptor; on Glucocorticoid receptor; in experiment [4]) was “Not Active” each time. For the same compound, the IC50 entry in experiment [5] and in experiment [6] was “Not Active” each time. Moreover, the Ki result in experiment [4] is “Not Active”.
For the compound `NS(=O)(=O)c1cc(C2(O)NC(=O)c3ccccc32)ccc1Cl` (configuration not stated) [CHLORTHALIDONE], the half-inhibitory concentration (IC50) result (in experiment [1]; in experiment [2] (bti-tn-5b1-4); in experiment [3]; at Insulin receptor; at Glucocorticoid receptor; in experiment [4]) was “Not Active” each time. For the same compound, the IC50 entry in experiment [5] and in experiment [6] was “Not Active” in each case. The Ki result in experiment [4] is “Not Active”.
Regarding `O=C(O)CC(O)(CC(=O)O)C(=O)O` [CITRIC ACID], the IC50 result (in experiment [1]; in experiment [2] (bti-tn-5b1-4); in experiment [3]; against Insulin receptor; on Glucocorticoid receptor; in experiment [4]) was “Not Active” throughout. Further, the IC50 result in experiment [5] and in experiment [6] was “Not Active” in each case. In addition, the Ki entry in experiment [4] is given as “Not Active”.
As for `CN1CCN(C(c2ccccc2)c2ccccc2)CC1` [CYCLIZINE], the IC50 result (in experiment [1]; in experiment [2] (bti-tn-5b1-4); in experiment [3]; on Insulin receptor; against Glucocorticoid receptor; in experiment [4]) was “Not Active” throughout. Further, the IC50 result in experiment [5] and in experiment [6] was “Not Active” throughout. Moreover, the Ki result in experiment [4] was “Not Active”.
On to `CN1C[C@@H]2C[C@H]1CN2c1cc2c(cc1F)c(=O)c(C(=O)O)cn2C1CC1` [DANOFLOXACIN], for which the IC50 entry (in experiment [1]; in experiment [2] (bti-tn-5b1-4); in experiment [3]; against Insulin receptor; on Glucocorticoid receptor; in experiment [4]) was “Not Active” in each case. In addition, the IC50 entry in experiment [5] and in experiment [6] was “Not Active” each time. Moreover, in experiment [4], the Ki result is listed as “Not Active”.
For the compound `COc1cccc2c1C(=O)c1c(O)c3c(c(O)c1C2=O)C[C@@](O)(C(C)=O)C[C@@H]3O[C@H]1C[C@H](N)[C@H](O)[C@H](C)O1` [DAUNORUBICIN], the half-maximal inhibitory concentration (IC50) result (in experiment [1]; in experiment [2] (bti-tn-5b1-4); in experiment [3]; against Insulin receptor; at Glucocorticoid receptor; in experiment [4]) was “Not Active” throughout. The IC50 entry in experiment [5] and in experiment [6] was “Not Active” throughout. Further, the Ki result in experiment [4] is given as “Not Active”.
With `O=C(O)c1cc(-c2ccc(F)cc2F)ccc1O` [DIFLUNISAL], the IC50 entry (in experiment [1]; in experiment [2] (bti-tn-5b1-4); in experiment [3]; on Insulin receptor; against Glucocorticoid receptor; in experiment [4]) was “Not Active” throughout. Moreover, the half-maximal inhibitory concentration (IC50) result in experiment [5] and in experiment [6] was “Not Active” each time. The Ki entry in experiment [4] is “Not Active”.
For the compound `C[S+](C)[O-]` [DIMETHYL SULFOXIDE], the IC50 entry (in experiment [1]; in experiment [2] (bti-tn-5b1-4); in experiment [3]; on Insulin receptor; against Glucocorticoid receptor; in experiment [4]) was “Not Active” in each case. Besides, the half-maximal inhibitory concentration (IC50) result in experiment [5] and in experiment [6] was “Not Active” throughout. Moreover, in experiment [4], the Ki entry was “Not Active”.
`CC1=NN(c2ccccc2)C(=O)C1` [EDARAVONE]: the IC50 result (in experiment [1]; in experiment [2] (bti-tn-5b1-4); in experiment [3]; at Insulin receptor; against Glucocorticoid receptor; in experiment [4]) was “Not Active” throughout. The IC50 entry in experiment [5] and in experiment [6] was “Not Active” in each case. Also, the Ki entry in experiment [4] is reported as “Not Active”.
For `CC(C)C[C@H]1C(=O)N2CCC[C@H]2[C@]2(O)O[C@](NC(=O)[C@@H]3C=C4c5cccc6[nH]cc(c56)C[C@H]4N(C)C3)(C(C)C)C(=O)N12` [ERGOCRYPTINE], the IC50 entry (in experiment [1]; in experiment [2] (bti-tn-5b1-4); in experiment [3]; against Insulin receptor; on Glucocorticoid receptor; in experiment [4]) was “Not Active” in each case. Further, the IC50 result in experiment [5] and in experiment [6] was “Not Active” in each case. Also, the Ki result in experiment [4] is on record as “Not Active”.
On to `CC(C)(C(=O)O)c1ccc(C(O)CCCN2CCC(C(O)(c3ccccc3)c3ccccc3)CC2)cc1` (configuration not stated) [FEXOFENADINE], for which the concentration for half-maximal inhibition (IC50) result (in experiment [1]; in experiment [2] (bti-tn-5b1-4); in experiment [3]; against Insulin receptor; against Glucocorticoid receptor; in experiment [4]) was “Not Active” in each case. Also, the IC50 result in experiment [5] and in experiment [6] was “Not Active” in each case. Also, the Ki entry in experiment [4] is “Not Active”.
With `CN1CCN(c2c(F)cc3c(=O)c(C(=O)O)cn(CCF)c3c2F)CC1` [FLEROXACIN], the half-maximal inhibitory concentration (IC50) entry (in experiment [1]; in experiment [2] (bti-tn-5b1-4); in experiment [3]; against Insulin receptor; at Glucocorticoid receptor; in experiment [4]) was “Not Active” in each case. The IC50 entry in experiment [5] and in experiment [6] was “Not Active” in each case. In addition, the Ki result in experiment [4] is given as “Not Active”.
